# Source: paper PMC11219860, “A chemogenetic approach for dopamine imaging with tunable sensitivity” (Nature Communications, 2024)
# Like-named read-outs stand apart in the source and are kept apart here.
# Key:
# [1] = design: method as in Rajagopal et al., 2024; conditions: ref Rajagopal et al., 2024, cited from earlier work
# [2] = target: T1, msDRD1 (Mus musculus, UniProt Q61616); conditions: cited from earlier work
# T1 construct: expressed in transfected cells; host or cells: HEK293T
# [3] = test system: dLight1.3b; assay: Unpredicted reward or footshock with PFC dLight1.3b photometry; format: in vivo, mouse
# Procedure: After habituating mice to the experimental chamber (4 consecutive days for 5–10 min) mice were food restricted to 90% ad libitum body weight. […] During learning sessions, the delay between CS and US was increased every training day from 2 to 10 seconds until mice became expert. […] After i.p. injection, mice were placed into an operant chamber. 3–4 electric footshocks (0.4 mA for 1 second) were delivered 10 to 25 min post vehicle or DETQ with variable intervals (randomly chosen from a uniform distribution between 240 and 360 seconds or between 120 and 240 seconds) without predictive cues. Mouse freezing behavior was monitored with a video camera (C310 Logitech,10 frames per second) positioned above the recording chamber and controlled by the Synapse software. […] Freezing was defined as the complete cessation of all movement for at least 1 s during a 25-min testing duration.
# For long-term recordings during optogenetic stimulation or chemogenetic inhibition linear fit was calculated across the entire recording or across the vehicle epoch; for event-related experiments fit was performed on fluorescent data obtained in the −60 to +60 s around opto events or −5 to −1 s around behavioral events. […] DA event-related responses were quantified by computing the value at the transient’s peak value and the AUC in the 0 to 10 s or 0 to 60 s period post-event onset. […] The maximal peak value of Veh-normalized ΔF/F0 after opto-onset was plotted over time and the plateau of maximal response was determined by averaging peak opto responses 5, 10, 15 and 20 min post-DETQ. We then looked at trials between 5 and 65 min post-DETQ to determine which trials belonged to a ‘temporal window for stable imaging’. […] Average ΔF/F0 in the 10–20 min post vehicle injection, 0–10 min post DETQ/Veh and 2–12 min post J60/Veh were computed. […] For weekly DETQ injection, AUC was calculated in the relevant drug epoch (Veh, DETQ) and normalized against the duration of that epoch (Veh: 10 min, DETQ: 50 min). […] AUC of the baseline was calculated within the +5 to +40 minutes time window post ip injection. For detection of spontaneous DA peaks the calculated ΔF/F0 was smoothed with a 50 datapoints (410 milliseconds) moving window, and the built-in Matlab function findpeaks was applied, with the threshold for minimal peak prominence set to 0.5% ΔF/F0.
# T1 sequence (Q61616 whole entry): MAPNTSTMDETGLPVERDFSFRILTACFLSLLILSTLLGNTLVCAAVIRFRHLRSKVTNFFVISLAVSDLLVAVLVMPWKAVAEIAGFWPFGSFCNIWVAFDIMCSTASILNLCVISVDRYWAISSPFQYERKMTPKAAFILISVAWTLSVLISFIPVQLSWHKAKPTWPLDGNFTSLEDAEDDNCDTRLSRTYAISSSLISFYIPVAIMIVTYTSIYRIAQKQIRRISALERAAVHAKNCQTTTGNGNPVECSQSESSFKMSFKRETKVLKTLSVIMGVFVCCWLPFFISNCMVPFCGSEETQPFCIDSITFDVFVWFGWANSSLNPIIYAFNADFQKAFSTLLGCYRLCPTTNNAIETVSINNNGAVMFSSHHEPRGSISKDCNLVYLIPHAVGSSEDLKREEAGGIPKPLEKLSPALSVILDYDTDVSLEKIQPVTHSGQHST
structure (smiles),measurement,setting,value
"C[C@H]1c2cccc(C(C)(C)O)c2C[C@H](CO)N1C(=O)Cc1c(Cl)cccc1Cl [DETQ, 2-(2,6-dichlorophenyl)-1-((1S,3R)-3-(hydroxymethyl)-5-(2-hydroxypropan-2-yl)-1-methyl-3,4-dihydroisoquinolin-2(1H)-yl)ethan-1-one]",deficits in Novel Object Recognition and Social Interaction,"[1]; aged hD1 mice, PO 3-10 mg/kg",fully reversed these deficits
same,deficits in Novel Object Recognition and Social Interaction,[1]; aged wild type mice,failed to reverse these deficits
same,Kb,[2],0.312 µM
same,fold less potent on msDRD1 than on hmDRD1,[2],> 30 fold
same,selectivity for human vs mouse D1 in potentiator mode,"[2]; potentiation of dopamine induced activation of cAMP, ref Hao et al., 2019, Wang et al., 2018",30 x
same,partial potentiation of dopamine (% of max potentiation),"[2]; rodent (rat or mouse), ref Hao et al., 2019, Wang et al., 2018",45-53%
same,increase in the average peak amplitude vs. Vehicle,"[3]; PFC, unpredicted reward",2 fold
same,single trials with detected response to reward,"[3]; PFC, unpredicted reward",90.91 ± 1.40%
same,amplitude of DA signals during unexpected footshocks,"[3]; PFC, vs interleaved vehicle days",significantly larger
same,response to footshocks (freezing),"[3]; mouse, in vivo",not affected
same,licking duration,[3]; unpredicted reward,remained unchanged
